What was measured:
Assay in all cases: Kinase panel
Type in all cases: biochemical
Conditions in all cases: read-out: % Residual Activity
TGFBR1(h) = target: T1, TGFBR1(h) (Homo sapiens, UniProt P36897)
T1 construct: purchased Eurofins (KinaseProfiler)
Protocol: (§1) Kinome-wide selectivity of rilpivirine was measured using the kinase screening and profiling service of Eurofins Scientific (Le bois l’Evêque 86600. Celle-Lévescault, France) and Ki values were determined using radioisotope-based assays by Reaction Biology Corporation (Malvern, PA, USA). The experimental details of Eurofin Scientific and Reaction Biology services for relevant assays are available at https://www.eurofinsdiscoveryservices.com/services/in-Vitro-assays/kinases/kinase-profiler (accessed on 7 July 2021) and https://www.reactionbiology.com (accessed on 7 July 2021), respectively. Ki values were estimated from the corresponding IC50 values using the Cheng–Prusoff equation [21] and the Km (ATP) of individual kinase was used for IC50 determination.

BTK(R28H)(h) = target: T2, BTK(R28H)(h) (Homo sapiens, UniProt Q06187, R28H)
T2 construct: purchased Eurofins (KinaseProfiler)
Protocol: as §1

Flt3(h) = target: T3, Flt3(h) (Homo sapiens, UniProt P36888)
T3 construct: purchased Eurofins (KinaseProfiler)
Protocol: as §1

STK39(h) = target: T4, STK39(h) (Homo sapiens, UniProt Q9UEW8)
T4 construct: purchased Eurofins (KinaseProfiler)
Protocol: as §1

PKCε(h) = target: T5, PKCε(h) (Homo sapiens, UniProt Q02156)
T5 construct: purchased Eurofins (KinaseProfiler)
Protocol: as §1

Snk(h) = target: T6, Snk(h) (Homo sapiens, UniProt Q9NYY3)
T6 construct: purchased Eurofins (KinaseProfiler)
Protocol: as §1

CaMKIIγ(h) = target: T7, CaMKIIγ(h) (Homo sapiens, UniProt Q13555)
T7 construct: purchased Eurofins (KinaseProfiler)
Protocol: as §1

cKit(D816V)(h) = target: T8, cKit(D816V)(h) (Homo sapiens, UniProt P10721, D816V)
T8 construct: purchased Eurofins (KinaseProfiler)
Protocol: as §1

SAPK4(h) = target: T9, SAPK4(h) (Homo sapiens, UniProt O15264)
T9 construct: purchased Eurofins (KinaseProfiler)
Protocol: as §1

ZAP-70(h) = target: T10, ZAP-70(h) (Homo sapiens, UniProt P43403)
T10 construct: purchased Eurofins (KinaseProfiler)
T10 sequence (P43403 whole entry): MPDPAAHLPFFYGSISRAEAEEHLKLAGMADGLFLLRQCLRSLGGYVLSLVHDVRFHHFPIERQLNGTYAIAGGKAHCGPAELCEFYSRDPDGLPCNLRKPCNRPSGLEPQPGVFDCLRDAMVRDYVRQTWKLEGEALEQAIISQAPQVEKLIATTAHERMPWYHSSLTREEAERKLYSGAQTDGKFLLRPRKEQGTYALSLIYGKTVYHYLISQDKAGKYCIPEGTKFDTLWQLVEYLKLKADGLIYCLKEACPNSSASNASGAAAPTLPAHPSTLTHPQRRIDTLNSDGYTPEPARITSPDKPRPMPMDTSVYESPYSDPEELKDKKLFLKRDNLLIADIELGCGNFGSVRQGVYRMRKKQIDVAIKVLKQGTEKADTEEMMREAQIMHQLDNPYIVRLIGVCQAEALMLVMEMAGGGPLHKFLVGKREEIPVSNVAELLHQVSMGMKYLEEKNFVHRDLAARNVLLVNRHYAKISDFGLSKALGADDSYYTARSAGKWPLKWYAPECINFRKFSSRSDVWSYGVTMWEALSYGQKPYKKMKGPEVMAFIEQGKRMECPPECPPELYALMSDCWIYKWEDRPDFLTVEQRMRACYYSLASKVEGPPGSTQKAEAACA
Protocol: as §1

Met(D1246N)(h) = target: T11, Met(D1246N)(h) (Homo sapiens, UniProt P08581, D1228N)
T11 construct: purchased Eurofins (KinaseProfiler)
Protocol: as §1

Src(T341M)(h) = target: T12, Src(T341M)(h) (Homo sapiens, UniProt P12931, T341M)
T12 construct: purchased Eurofins (KinaseProfiler)
Protocol: as §1

TAO2(h) = target: T13, TAO2(h) (Homo sapiens, UniProt Q9UL54)
T13 construct: purchased Eurofins (KinaseProfiler)
Protocol: as §1

TAK1(h) = target: T14, TAK1(h) (Homo sapiens, UniProt O43318)
T14 construct: purchased Eurofins (KinaseProfiler)
Protocol: as §1

GRK6(h) = target: T15, GRK6(h) (Homo sapiens, UniProt P43250)
T15 construct: purchased Eurofins (KinaseProfiler)
Protocol: as §1

TBK1(h) = target: T16, TBK1(h) (Homo sapiens, UniProt Q9UHD2)
T16 construct: purchased Eurofins (KinaseProfiler)
Protocol: as §1

Mer(h) = target: T17, Mer(h) (Homo sapiens, UniProt Q12866)
T17 construct: purchased Eurofins (KinaseProfiler)
Protocol: as §1

CaMKIß(h) = target: T18, CaMKIß(h) (Homo sapiens, UniProt Q6P2M8)
T18 construct: purchased Eurofins (KinaseProfiler)
Protocol: as §1

Pyk2(h) = target: T19, Pyk2(h) (Homo sapiens, UniProt Q14289)
T19 construct: purchased Eurofins (KinaseProfiler)
T19 sequence (Q14289 whole entry): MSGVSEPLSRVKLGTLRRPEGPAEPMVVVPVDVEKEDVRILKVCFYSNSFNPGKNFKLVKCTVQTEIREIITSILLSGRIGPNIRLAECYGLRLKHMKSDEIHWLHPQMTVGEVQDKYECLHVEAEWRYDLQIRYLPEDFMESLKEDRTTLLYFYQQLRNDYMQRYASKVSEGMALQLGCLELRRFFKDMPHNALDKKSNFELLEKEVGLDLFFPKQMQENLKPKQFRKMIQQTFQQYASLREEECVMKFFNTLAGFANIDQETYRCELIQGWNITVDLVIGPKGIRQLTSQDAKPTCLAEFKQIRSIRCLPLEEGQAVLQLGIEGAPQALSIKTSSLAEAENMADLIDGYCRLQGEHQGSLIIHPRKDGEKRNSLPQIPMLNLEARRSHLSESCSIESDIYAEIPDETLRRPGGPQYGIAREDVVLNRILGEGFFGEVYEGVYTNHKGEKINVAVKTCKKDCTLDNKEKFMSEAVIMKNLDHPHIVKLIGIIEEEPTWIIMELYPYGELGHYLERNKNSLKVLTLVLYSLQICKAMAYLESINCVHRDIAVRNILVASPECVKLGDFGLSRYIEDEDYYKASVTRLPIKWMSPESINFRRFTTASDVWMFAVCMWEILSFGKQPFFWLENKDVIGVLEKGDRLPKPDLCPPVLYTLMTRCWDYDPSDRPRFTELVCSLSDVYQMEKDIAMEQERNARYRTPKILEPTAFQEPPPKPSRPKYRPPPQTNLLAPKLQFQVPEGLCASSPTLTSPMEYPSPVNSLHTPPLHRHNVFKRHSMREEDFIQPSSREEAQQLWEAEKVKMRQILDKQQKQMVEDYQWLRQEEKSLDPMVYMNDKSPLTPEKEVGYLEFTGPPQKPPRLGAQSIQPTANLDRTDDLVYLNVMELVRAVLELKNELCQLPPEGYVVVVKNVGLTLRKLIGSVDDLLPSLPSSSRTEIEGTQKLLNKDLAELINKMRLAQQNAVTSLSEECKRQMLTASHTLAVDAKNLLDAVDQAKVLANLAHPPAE
Protocol: as §1

CLK2(h) = target: T20, CLK2(h) (Homo sapiens, UniProt P49760)
T20 construct: purchased Eurofins (KinaseProfiler)
Protocol: as §1

CaMKIIδ(h) = target: T21, CaMKIIδ(h) (Homo sapiens, UniProt Q13557)
T21 construct: purchased Eurofins (KinaseProfiler)
Protocol: as §1

HIPK1(h) = target: T22, HIPK1(h) (Homo sapiens, UniProt Q86Z02)
T22 construct: purchased Eurofins (KinaseProfiler)
Protocol: as §1

HIPK4(h) = target: T23, HIPK4(h) (Homo sapiens, UniProt Q8NE63)
T23 construct: purchased Eurofins (KinaseProfiler)
Protocol: as §1

cKit(D816H)(h) = target: T24, cKit(D816H)(h) (Homo sapiens, UniProt P10721, D816H)
T24 construct: purchased Eurofins (KinaseProfiler)
Protocol: as §1

MSSK1(h) = target: T25, MSSK1(h) (Homo sapiens, UniProt Q9UPE1)
T25 construct: purchased Eurofins (KinaseProfiler)
Protocol: as §1

JNK1α1(h) = target: T26, JNK1α1(h) (Homo sapiens, UniProt P45983)
T26 construct: purchased Eurofins (KinaseProfiler)
Protocol: as §1

PKCα(h) = target: T27, PKCα(h) (Homo sapiens, UniProt P17252)
T27 construct: purchased Eurofins (KinaseProfiler)
Protocol: as §1

PRAK(h) = target: T28, PRAK(h) (Homo sapiens, UniProt Q8IW41)
T28 construct: purchased Eurofins (KinaseProfiler)
Protocol: as §1

MKK6(h) = target: T29, MKK6(h) (Homo sapiens, UniProt P52564)
T29 construct: purchased Eurofins (KinaseProfiler)
Protocol: as §1

LOK(h) = target: T30, LOK(h) (Homo sapiens, UniProt O94804)
T30 construct: purchased Eurofins (KinaseProfiler)
Protocol: as §1

Rsk2(h) = target: T31, Rsk2(h) (Homo sapiens, UniProt P51812)
T31 construct: purchased Eurofins (KinaseProfiler)
Protocol: as §1

GCK(h) = target: T32, GCK(h) (Homo sapiens, UniProt Q12851)
T32 construct: purchased Eurofins (KinaseProfiler)
Protocol: as §1

TrkC(h) = target: T33, TrkC(h) (Homo sapiens, UniProt Q16288)
T33 construct: purchased Eurofins (KinaseProfiler)
T33 sequence (Q16288 32-839): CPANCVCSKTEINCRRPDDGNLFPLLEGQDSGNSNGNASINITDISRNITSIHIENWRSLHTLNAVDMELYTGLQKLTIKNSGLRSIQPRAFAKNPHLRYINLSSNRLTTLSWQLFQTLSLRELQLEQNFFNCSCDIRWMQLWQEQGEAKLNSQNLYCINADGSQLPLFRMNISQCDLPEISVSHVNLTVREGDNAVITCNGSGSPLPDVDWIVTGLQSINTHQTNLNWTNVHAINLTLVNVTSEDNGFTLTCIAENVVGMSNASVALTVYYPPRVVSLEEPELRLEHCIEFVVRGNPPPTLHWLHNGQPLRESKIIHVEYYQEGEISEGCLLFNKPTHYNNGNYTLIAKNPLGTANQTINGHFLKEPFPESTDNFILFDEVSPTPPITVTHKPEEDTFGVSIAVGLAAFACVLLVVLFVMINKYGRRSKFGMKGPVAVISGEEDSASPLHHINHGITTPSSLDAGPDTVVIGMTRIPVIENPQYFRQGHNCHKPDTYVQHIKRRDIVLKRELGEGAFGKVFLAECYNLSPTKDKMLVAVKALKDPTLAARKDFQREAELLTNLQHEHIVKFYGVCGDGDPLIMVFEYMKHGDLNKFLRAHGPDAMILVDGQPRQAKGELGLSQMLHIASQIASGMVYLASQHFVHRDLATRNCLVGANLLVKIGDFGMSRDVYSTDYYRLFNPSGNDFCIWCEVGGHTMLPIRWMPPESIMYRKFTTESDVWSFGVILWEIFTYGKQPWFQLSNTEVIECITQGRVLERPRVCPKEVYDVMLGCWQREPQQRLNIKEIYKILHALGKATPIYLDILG
Protocol: as §1

NEK6(h) = target: T34, NEK6(h) (Homo sapiens, UniProt Q9HC98)
T34 construct: purchased Eurofins (KinaseProfiler)
Protocol: as §1

BrSK1(h) = target: T35, BrSK1(h) (Homo sapiens, UniProt Q8TDC3)
T35 construct: purchased Eurofins (KinaseProfiler)
Protocol: as §1

IR(h), activated = target: T36, IR(h), activated (Homo sapiens, UniProt P06213)
T36 construct: purchased Eurofins (KinaseProfiler)
T36 sequence (P06213 28-1382): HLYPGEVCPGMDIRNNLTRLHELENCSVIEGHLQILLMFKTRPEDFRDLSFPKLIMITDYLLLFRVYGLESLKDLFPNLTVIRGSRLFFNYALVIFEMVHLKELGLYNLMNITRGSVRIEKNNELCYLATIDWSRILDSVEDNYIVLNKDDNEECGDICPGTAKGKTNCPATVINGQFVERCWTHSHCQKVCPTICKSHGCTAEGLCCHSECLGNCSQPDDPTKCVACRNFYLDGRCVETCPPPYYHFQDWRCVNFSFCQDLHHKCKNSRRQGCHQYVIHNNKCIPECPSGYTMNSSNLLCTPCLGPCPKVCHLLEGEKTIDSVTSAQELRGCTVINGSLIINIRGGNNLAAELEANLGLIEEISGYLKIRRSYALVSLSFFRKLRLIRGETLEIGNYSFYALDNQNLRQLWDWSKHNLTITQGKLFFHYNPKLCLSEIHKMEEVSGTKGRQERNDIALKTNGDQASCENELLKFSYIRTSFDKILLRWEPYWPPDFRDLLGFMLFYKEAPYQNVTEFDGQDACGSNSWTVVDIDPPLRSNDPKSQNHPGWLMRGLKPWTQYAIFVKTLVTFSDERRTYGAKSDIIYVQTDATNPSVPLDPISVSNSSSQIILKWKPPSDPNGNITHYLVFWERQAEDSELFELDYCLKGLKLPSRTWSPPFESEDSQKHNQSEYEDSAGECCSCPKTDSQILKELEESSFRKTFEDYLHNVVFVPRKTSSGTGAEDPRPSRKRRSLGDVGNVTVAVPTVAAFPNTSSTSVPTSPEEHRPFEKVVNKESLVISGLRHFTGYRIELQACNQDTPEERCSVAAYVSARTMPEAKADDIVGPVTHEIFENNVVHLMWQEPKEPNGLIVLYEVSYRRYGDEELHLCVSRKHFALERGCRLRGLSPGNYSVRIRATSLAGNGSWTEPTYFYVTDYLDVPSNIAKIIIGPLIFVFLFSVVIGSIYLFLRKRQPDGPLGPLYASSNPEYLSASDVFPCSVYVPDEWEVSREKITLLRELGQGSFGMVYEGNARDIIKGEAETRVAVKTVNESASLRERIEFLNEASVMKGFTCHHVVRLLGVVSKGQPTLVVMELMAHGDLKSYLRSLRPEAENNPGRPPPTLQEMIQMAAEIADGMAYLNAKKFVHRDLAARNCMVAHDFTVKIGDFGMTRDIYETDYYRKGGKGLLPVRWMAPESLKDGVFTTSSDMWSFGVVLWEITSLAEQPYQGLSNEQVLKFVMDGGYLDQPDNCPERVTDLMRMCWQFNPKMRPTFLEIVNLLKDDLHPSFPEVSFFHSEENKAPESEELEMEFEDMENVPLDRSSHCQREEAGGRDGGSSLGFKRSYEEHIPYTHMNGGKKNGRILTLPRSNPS
Protocol: as §1

Fms(Y969C)(h) = target: T37, Fms(Y969C)(h) (Homo sapiens, UniProt P07333, Y969C)
T37 construct: purchased Eurofins (KinaseProfiler)
Protocol: as §1

CDK9/cyclin T1(h) = target: T38, CDK9/cyclin T1(h) (Homo sapiens, UniProt P50750)
T38 construct: purchased Eurofins (KinaseProfiler)
T38 sequence (P50750 whole entry): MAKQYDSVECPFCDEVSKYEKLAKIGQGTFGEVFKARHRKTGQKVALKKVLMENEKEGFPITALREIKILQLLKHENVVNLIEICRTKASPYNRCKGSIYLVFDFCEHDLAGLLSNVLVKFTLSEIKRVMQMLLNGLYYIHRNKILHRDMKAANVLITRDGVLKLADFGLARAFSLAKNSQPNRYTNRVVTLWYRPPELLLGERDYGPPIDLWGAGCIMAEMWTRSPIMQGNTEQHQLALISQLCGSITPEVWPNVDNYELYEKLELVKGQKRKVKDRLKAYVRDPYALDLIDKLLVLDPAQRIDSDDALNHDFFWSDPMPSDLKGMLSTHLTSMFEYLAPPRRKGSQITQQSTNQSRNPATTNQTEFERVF
T38 sequence (O60563 whole entry partner): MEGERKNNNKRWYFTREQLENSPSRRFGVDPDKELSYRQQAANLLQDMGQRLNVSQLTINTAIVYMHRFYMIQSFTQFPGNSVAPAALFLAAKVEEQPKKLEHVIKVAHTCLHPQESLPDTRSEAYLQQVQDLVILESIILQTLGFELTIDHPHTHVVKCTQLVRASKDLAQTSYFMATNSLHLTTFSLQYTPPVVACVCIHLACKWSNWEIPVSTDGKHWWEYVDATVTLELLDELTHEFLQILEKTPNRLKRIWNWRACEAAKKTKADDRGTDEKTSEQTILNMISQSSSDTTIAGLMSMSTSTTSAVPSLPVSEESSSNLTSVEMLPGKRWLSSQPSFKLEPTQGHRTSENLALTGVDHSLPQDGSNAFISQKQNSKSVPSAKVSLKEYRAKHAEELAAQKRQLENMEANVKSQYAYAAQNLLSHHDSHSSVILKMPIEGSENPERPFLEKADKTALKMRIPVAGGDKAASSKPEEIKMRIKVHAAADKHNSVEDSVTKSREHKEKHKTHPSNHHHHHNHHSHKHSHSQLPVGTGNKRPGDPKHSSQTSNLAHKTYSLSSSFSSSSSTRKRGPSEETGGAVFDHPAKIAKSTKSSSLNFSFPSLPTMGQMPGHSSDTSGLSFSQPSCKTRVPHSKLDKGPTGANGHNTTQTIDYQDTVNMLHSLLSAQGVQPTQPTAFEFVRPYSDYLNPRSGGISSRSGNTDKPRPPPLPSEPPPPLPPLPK
Protocol: as §1

**Q.** How did the remaining activity at 1 µM (TGFBR1(h)) turn out when Cc1cc(/C=C/C#N)cc(C)c1Nc1ccnc(Nc2ccc(C#N)cc2)n1 [rilpivirine, (E)-4-((4-((4-(2-cyanoethenyl)-2,6-dimethylphenyl)amino)pyrimidin-2-yl)amino)benzonitrile] was run?
**A.** The remaining activity at 1 µM was 103%.

**Q.** What about the remaining activity at 1 µM (BTK(R28H)(h)) of the same molecule?
**A.** The remaining activity at 1 µM was 97%.

**Q.** What about the remaining activity at 1 µM (Flt3(h)) of the same molecule?
**A.** The remaining activity at 1 µM was 123%.

**Q.** What about the remaining activity at 1 µM (STK39(h)) of the same molecule?
**A.** Its remaining activity at 1 µM is 95%.

**Q.** And the remaining activity at 1 µM (PKCε(h))?
**A.** Its remaining activity at 1 µM is 89%.

**Q.** What about the remaining activity at 1 µM (Snk(h)) of the same molecule?
**A.** The remaining activity at 1 µM was 98%.

**Q.** What about the remaining activity at 1 µM (CaMKIIγ(h)) of the same molecule?
**A.** The remaining activity at 1 µM was 58%.

**Q.** What about the remaining activity at 1 µM (cKit(D816V)(h)) of the same molecule?
**A.** Its remaining activity at 1 µM is 88%.

**Q.** What about the remaining activity at 1 µM (SAPK4(h)) of the same molecule?
**A.** The remaining activity at 1 µM was 97%.

**Q.** What about the remaining activity at 1 µM (ZAP-70(h)) of the same molecule?
**A.** The remaining activity at 1 µM was 97%.

**Q.** What about the remaining activity at 1 µM (Met(D1246N)(h)) of the same molecule?
**A.** Its remaining activity at 1 µM is 102%.

**Q.** And the remaining activity at 1 µM (Src(T341M)(h))?
**A.** The remaining activity at 1 µM was 78%.

**Q.** What about the remaining activity at 1 µM (TAO2(h)) of the same molecule?
**A.** Its remaining activity at 1 µM is 59%.

**Q.** What about the remaining activity at 1 µM (TAK1(h)) of the same molecule?
**A.** Its remaining activity at 1 µM is 105%.

**Q.** And the remaining activity at 1 µM (GRK6(h))?
**A.** The remaining activity at 1 µM was 97%.

**Q.** And the remaining activity at 1 µM (TBK1(h))?
**A.** The remaining activity at 1 µM was 72%.

**Q.** What about the remaining activity at 1 µM (Mer(h)) of the same molecule?
**A.** The remaining activity at 1 µM was 74%.

**Q.** And the remaining activity at 1 µM (CaMKIß(h))?
**A.** The remaining activity at 1 µM was 92%.

**Q.** And the remaining activity at 1 µM (Pyk2(h))?
**A.** The remaining activity at 1 µM was 81%.

**Q.** And the remaining activity at 1 µM (CLK2(h))?
**A.** The remaining activity at 1 µM was 60%.

**Q.** What about the remaining activity at 1 µM (CaMKIIδ(h)) of the same molecule?
**A.** The remaining activity at 1 µM was 47%.

**Q.** What about the remaining activity at 1 µM (HIPK1(h)) of the same molecule?
**A.** The remaining activity at 1 µM was 97%.

**Q.** And the remaining activity at 1 µM (HIPK4(h))?
**A.** The remaining activity at 1 µM was 87%.

**Q.** And the remaining activity at 1 µM (cKit(D816H)(h))?
**A.** Its remaining activity at 1 µM is 89%.

**Q.** And the remaining activity at 1 µM (MSSK1(h))?
**A.** Its remaining activity at 1 µM is 84%.

**Q.** What about the remaining activity at 1 µM (JNK1α1(h)) of the same molecule?
**A.** Its remaining activity at 1 µM is 90%.

**Q.** And the remaining activity at 1 µM (PKCα(h))?
**A.** Its remaining activity at 1 µM is 83%.

**Q.** And the remaining activity at 1 µM (PRAK(h))?
**A.** Its remaining activity at 1 µM is 100%.

**Q.** And the remaining activity at 1 µM (MKK6(h))?
**A.** The remaining activity at 1 µM was 94%.

**Q.** And the remaining activity at 1 µM (LOK(h))?
**A.** Its remaining activity at 1 µM is 101%.

**Q.** What about the remaining activity at 1 µM (Rsk2(h)) of the same molecule?
**A.** Its remaining activity at 1 µM is 82%.

**Q.** And the remaining activity at 1 µM (GCK(h))?
**A.** Its remaining activity at 1 µM is 99%.

**Q.** What about the remaining activity at 1 µM (TrkC(h)) of the same molecule?
**A.** The remaining activity at 1 µM was 91%.

**Q.** And the remaining activity at 1 µM (NEK6(h))?
**A.** Its remaining activity at 1 µM is 94%.

**Q.** What about the remaining activity at 1 µM (BrSK1(h)) of the same molecule?
**A.** The remaining activity at 1 µM was 84%.

**Q.** And the remaining activity at 1 µM (IR(h), activated)?
**A.** Its remaining activity at 1 µM is 85%.

**Q.** What about the remaining activity at 1 µM (Fms(Y969C)(h)) of the same molecule?
**A.** The remaining activity at 1 µM was 83%.

**Q.** And the remaining activity at 1 µM (CDK9/cyclin T1(h))?
**A.** Its remaining activity at 1 µM is 81%.
